According to patent US9504675B2, “Alpha-ketoheterocycles and methods of making and using” (The Scripps Research Institute, priority 2011, dated 2016):
Where two headings read alike, the source gives them in different places.

Target: T1, recombinant rat FAAH (rFAAH) (Rattus norvegicus, UniProt P97612)
T1 construct: The truncated rat FAAH (rFAAH) was expressed in E. coli and purified; made in house; host or cells: Escherichia coli
T1 sequence (P97612 30-579 limits assumed): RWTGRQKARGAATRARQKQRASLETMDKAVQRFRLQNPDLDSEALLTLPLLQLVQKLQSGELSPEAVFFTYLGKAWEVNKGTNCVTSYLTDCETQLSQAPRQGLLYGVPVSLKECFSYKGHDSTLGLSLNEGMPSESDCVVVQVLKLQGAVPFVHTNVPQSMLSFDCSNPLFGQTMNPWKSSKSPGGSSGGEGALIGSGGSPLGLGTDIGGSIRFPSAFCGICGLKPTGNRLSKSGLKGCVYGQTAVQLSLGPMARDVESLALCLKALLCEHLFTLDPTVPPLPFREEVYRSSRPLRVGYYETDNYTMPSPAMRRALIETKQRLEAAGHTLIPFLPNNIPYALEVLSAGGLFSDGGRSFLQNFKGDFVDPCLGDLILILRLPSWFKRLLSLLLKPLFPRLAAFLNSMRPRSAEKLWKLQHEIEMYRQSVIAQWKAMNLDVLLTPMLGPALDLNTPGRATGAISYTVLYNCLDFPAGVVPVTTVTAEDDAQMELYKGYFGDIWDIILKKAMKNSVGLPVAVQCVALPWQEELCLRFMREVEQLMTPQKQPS
Assay: Enzyme assay: inhibition of purified recombinant rat FAAH, 14C-oleamide hydrolysis, Ki by Dixon plot
Type: biochemical
Experimental: Enzyme assays were performed at 20-23° C. with purified recombinant rat FAAH expressed in Escherichia coli or with solubilized COS-7 membrane extracts from cells transiently transfected with human FAAH cDNA (where specifically indicated) in a buffer of 125 mM Tris/1 mM EDTA/0.2% glycerol/0.02% Triton X-100/0.4 mM Hepes, pH 9.0.
^14C-labeled oleamide was prepared from ^14C-labeled oleic acid. The truncated rat FAAH (rFAAH) was expressed in E. coli and purified. The purified recombinant rFAAH was used in the inhibition assays unless otherwise indicated. The full-length human FAAH (hFAAH) was expressed in COS-7 cells as described, and the lysate of hFAAH-transfected COS-7 cells was used in the inhibition assays where explicitly indicated.
The inhibition assays were performed as follows. […] The enzyme reaction was terminated by transferring 20 μL of the reaction mixture to 500 μL of 0.1 N HCl at three different time points. The ^14C-labeled oleamide (substrate) and oleic acid (product) were extracted with EtOAc and analyzed by TLC as detailed. The Ki of the inhibitor was calculated using a Dixon plot as described (standard deviations are provided in the Supporting Information tables).

[1] = Ki, Table 3, (R)-enantiomer, indane C2 acyl side chain
[2] = Ki, Table 2, (R)-enantiomer, 1,2,3,4-tetrahydronaphthalene C2 acyl side chain
[3] = Ki, Table 2, (S)-enantiomer, 1,2,3,4-tetrahydronaphthalene C2 acyl side chain
[4] = Ki, Table 3, tentatively assigned (S)-enantiomer, indane C2 acyl side chain

`O=C(c1ncco1)C1Cc2ccc(-c3ccccc3)cc2C1` (single isomer, unassigned) [(R)-22, Oxazol-2-yl(5-phenylindan-2-yl)methanone] showed a Ki [1] of 140 nM.

`O=C(c1ncco1)C1Cc2ccc(OCc3ccccc3)cc2C1` (racemic) [Compound 30, (5-(Benzyloxy)indan-2-yl)(oxazol-2-yl)methanone] gave a Ki (Table 3, racemate (enantiomers not separable), indane C2 acyl side chain, read-out: Ki) of 24 nM.

`COC(=O)c1cnc(C(=O)C2CCc3cc(OCc4ccccc4)ccc3C2)o1` (single isomer, unassigned) [(R)-16, Methyl 2-(6-(Benzyloxy)-1,2,3,4-tetrahydronaphthalene-2-carbonyl)oxazole-5-carboxylate] showed a Ki [2] of 53 nM.

`O=C(c1ncco1)C1CCc2cc(Oc3ccccc3)ccc2C1` (single isomer, unassigned) [(S)-9, Oxazol-2-yl(6-phenoxy-1,2,3,4-tetrahydronaphthalen-2-yl)methanone] gave a Ki [3] of 2.2 nM.

In the case of `O=C(c1ncco1)C1CCc2cc(OCc3ccccc3)ccc2C1` (single isomer, unassigned) [(R)-15, (6-(Benzyloxy)-1,2,3,4-tetrahydronaphthalen-2-yl)(oxazol-2-yl)methanone], the Ki [2] is reported as 87 nM.

With `O=C(c1ncco1)C1Cc2ccc(Oc3ccccc3)cc2C1` (single isomer, unassigned) [(S)-26, Oxazol-2-yl(5-phenoxyindan-2-yl)methanone] the Ki [4] was 10 nM.

With `O=C(O)c1cccc(-c2cnc(C(=O)C3CCc4cc(OCc5ccccc5)ccc4C3)o2)n1` (single isomer, unassigned) [(S)-20, 6-(2-(6-(Benzyloxy)-1,2,3,4-tetrahydronaphthalene-2-carbonyl)oxazol-5-yl)picolinic acid] the Ki [3] was 34 nM.

For `O=C(O)c1cccc(-c2cnc(C(=O)C3CCc4cc(Oc5ccccc5)ccc4C3)o2)n1` (single isomer, unassigned) [(S)-14, 6-(2-(6-Phenoxy-1,2,3,4-tetrahydronaphthalene-2-carbonyl)oxazol-5-yl)picolinic acid], the Ki [3] was 25 nM.

`O=C(O)c1cccc(-c2cnc(C(=O)C3Cc4ccc(Oc5ccccc5)cc4C3)o2)n1` (single isomer, unassigned) [(R)-29, 6-(2-(5-Phenoxyindane-2-carbonyl)oxazol-5-yl)picolinic acid] was tested, and the Ki [1] was 550 nM.

`O=C(O)c1cccc(-c2cnc(C(=O)C3Cc4ccc(-c5ccccc5)cc4C3)o2)n1` (racemic) [Compound 25, 6-[2-(5-Phenylindane-2-carbonyl)oxazol-5-yl]pyridine-2-carboxylic Acid] showed a Ki (Ki, Table 3, racemate (enantiomers not separable), indane C2 acyl side chain) of 57 nM.

`N#Cc1cnc(C(=O)C2CCc3cc(OCc4ccccc4)ccc3C2)o1` (single isomer, unassigned) [(R)-17, 2-(6-(Benzyloxy)-1,2,3,4-tetrahydronaphthalene-2-carbonyl)oxazole-5-carbonitrile] showed a Ki [2] of 120 nM.

`O=C(c1ncc(-c2ccccn2)o1)C1Cc2ccc(-c3ccccc3)cc2C1` (single isomer, unassigned) [(S)-23, (5-Phenylindan-2-yl)-(5-(pyridin-2-yl)oxazol-2-yl)methanone] was tested, and the Ki [4] was 1.9 nM.

In the case of `O=C(c1ncc(-c2ccccn2)o1)C1CCc2ccccc2C1` (centres unmarked) [Compound 38, (5-(Pyridin-2-yl)oxazol-2-yl)(1,2,3,4-tetrahydronaphthalen-2-yl)methanone], the “Ki relative to the FAAH inhibitor lacking the conformational constraints (Ki=200 nM)” value is reported as 2 fold and the Ki (Ki) is reported as 430 nM.

`COC(=O)c1cccc(-c2cnc(C(=O)C3CCc4cc(OCc5ccccc5)ccc4C3)o2)n1` (single isomer, unassigned) [(R)-19, Methyl 6-(2-(6-(Benzyloxy)-1,2,3,4-tetrahydronaphthalene-2-carbonyl)oxazol-5-yl)picolinate] was tested, and the Ki [2] was 4500 nM.

With `O=C(c1ncc(-c2ccccn2)o1)C1Cc2ccc(-c3ccccc3)cc2C1` (single isomer, unassigned) [(R)-23, (5-Phenylindan-2-yl)-(5-(pyridin-2-yl)oxazol-2-yl)methanone] the Ki [1] was 600 nM.

`COC(=O)c1cccc(-c2cnc(C(=O)C3CCc4cc(Oc5ccccc5)ccc4C3)o2)n1` (single isomer, unassigned) [(S)-13, Methyl 6-(2-(6-Phenoxy-1,2,3,4-tetrahydronaphthalene-2-carbonyl)oxazol-5-yl)picolinate] was tested, and the Ki [3] was 2.2 nM.
